PubChem BioAssay AID1963873 (Molecular Pharmacology Branch, DTP, NCI, 2024)

Test system: 276233-004-R-J1-PDC KRAS spheroids with HUVEC/MSC, viability
Assay: Anticancer human tumor 276233-004-R-J1-PDC patient-derived colon adenocarcinoma cell line growth inhibition [KRAS2]
Conditions: for viability, T/C: stronger effect = lower value
Summary of the method: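 KRAS-mutant tumor cells were grown as spheroids with HUVEC endothelial cells and human MSCs as stroma. Targeted agents were tested alone and with KRAS pathway inhibitors. Doses started at or near clinical Cmax, or 10 microM, descending half-log.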

[1] = curve of first compound, second compound 0.1 µM
[2] = curve of first compound, second compound 0.316 µM
[3] = curve of first compound, second compound 1 µM
[4] = curve of first compound, second compound 3.16 µM
[5] = curve of first compound, second compound 10 µM
[6] = second compound 0.1 µM, first compound 0.0316 µM
[7] = second compound 0.1 µM, first compound 0.1 µM
[8] = second compound 0.1 µM, first compound 0.316 µM
[9] = second compound 0.1 µM, first compound 1 µM
[10] = second compound 0.1 µM, first compound 3.16 µM
[11] = second compound 0.1 µM, first compound 10 µM
[12] = second compound 0.316 µM, first compound 0.0316 µM
[13] = second compound 0.316 µM, first compound 0.1 µM
[14] = second compound 0.316 µM, first compound 0.316 µM
[15] = second compound 0.316 µM, first compound 1 µM
[16] = second compound 0.316 µM, first compound 3.16 µM
[17] = second compound 0.316 µM, first compound 10 µM
[18] = second compound 1 µM, first compound 0.0316 µM
[19] = second compound 1 µM, first compound 0.1 µM
[20] = second compound 1 µM, first compound 0.316 µM
[21] = second compound 1 µM, first compound 1 µM
[22] = second compound 1 µM, first compound 3.16 µM
[23] = second compound 1 µM, first compound 10 µM
[24] = second compound 3.16 µM, first compound 0.0316 µM
[25] = second compound 3.16 µM, first compound 0.1 µM
[26] = second compound 3.16 µM, first compound 0.316 µM
[27] = second compound 3.16 µM, first compound 1 µM
[28] = second compound 3.16 µM, first compound 3.16 µM
[29] = second compound 3.16 µM, first compound 10 µM
[30] = second compound 10 µM, first compound 0.0316 µM
[31] = second compound 10 µM, first compound 0.1 µM
[32] = second compound 10 µM, first compound 0.316 µM
[33] = second compound 10 µM, first compound 1 µM
[34] = second compound 10 µM, first compound 3.16 µM
[35] = second compound 10 µM, first compound 10 µM
[36] = second compound 0.1 µM, first compound 0.01 µM
[37] = second compound 0.316 µM, first compound 0.01 µM
[38] = second compound 1 µM, first compound 0.01 µM
[39] = second compound 3.16 µM, first compound 0.01 µM
[40] = second compound 10 µM, first compound 0.01 µM
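Note: cells exposed to agents for seven days before viability read.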
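Throughout, for viability, T/C: 100% = DMSO vehicle control wells and lower values mean fewer viable cells.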

SMILES | IC50 [1] [µM] | IC50 [2] [µM] | IC50 [3] [µM] | IC50 [4] [µM] | viability, T/C [6] [%] | viability, T/C [7] [%] | viability, T/C [8] [%] | viability, T/C [9] [%] | viability, T/C [12] [%] | viability, T/C [13] [%] | viability, T/C [14] [%] | viability, T/C [15] [%] | viability, T/C [18] [%] | viability, T/C [19] [%] | viability, T/C [20] [%] | viability, T/C [21] [%] | viability, T/C [24] [%] | viability, T/C [25] [%] | viability, T/C [26] [%] | viability, T/C [27] [%] | other results
CCNC(=O)CC1N=C(c2ccc(Cl)cc2)c2cc(OC)ccc2-n2c(C)nnc21 (stereo unspecified) + CC1OCC2(CCN(c3cnc(Sc4ccnc(N)c4Cl)c(N)n3)CC2)C1N | > 10 | 7.12 | 3.16 | 0.392 | 94.5 | 85.6 | 71.5 | 66.8 | 89 | 73.1 | 73.6 | 58.2 | 79.8 | 71.5 | 63.9 | 52.5 | 72.6 | 71.6 | 51.5 | 44.4 | IC50 [5]: 0.53 µM; viability, T/C [10]: 56.4%; viability, T/C [11]: 72.8%; viability, T/C [16]: 52.5%; viability, T/C [17]: 49.1%; viability, T/C [22]: 46.9%; viability, T/C [23]: 52.2%; viability, T/C [28]: 43.3%; viability, T/C [29]: 41.4%; viability, T/C [30]: 55%; viability, T/C [31]: 56.6%; viability, T/C [32]: 52.2%; viability, T/C [33]: 48.2%; viability, T/C [34]: 41.6%; viability, T/C [35]: 42.4%
CC1COCCN1c1cc(-c2ccnn2C)c2ccnc(-c3ccn[nH]3)c2n1 (stereo unspecified) + CC1OCC2(CCN(c3cnc(Sc4ccnc(N)c4Cl)c(N)n3)CC2)C1N | > 3.16 | 2.18 | 2.83 | 0.632 | 96 | 78.3 | 86.2 | 60.9 | 106 | 84.8 | 74.6 | 61.1 | 73.2 | 67.9 | 68.5 | 57.4 | 86.2 | 64.8 | 57 | 46.8 | IC50 [5]: 0.737 µM; viability, T/C [36]: 107%; viability, T/C [10]: 56.1%; viability, T/C [37]: 76.9%; viability, T/C [16]: 45%; viability, T/C [38]: 87.7%; viability, T/C [22]: 47.5%; viability, T/C [39]: 64.1%; viability, T/C [28]: 40.7%; viability, T/C [40]: 61.1%; viability, T/C [30]: 66.4%; viability, T/C [31]: 56.6%; viability, T/C [32]: 49.2%; viability, T/C [33]: 52.9%; viability, T/C [34]: 41.1%
COc1cc2nc(C)nc(NC(C)c3cc(N)cc(C(F)(F)F)c3)c2cc1OC1CCOC1 (stereo unspecified) | – | – | – | – | – | – | – | – | – | – | – | – | – | – | – | – | – | – | – | – | IC50 (compound alone, run of 07/26/2021): 8.44 µM [middle of 6 runs]
O=C(c1cc(Cc2n[nH]c(=O)c3ccccc23)ccc1F)N1CCN(C(=O)C2CC2)CC1 + COc1cc2nc(C)nc(NC(C)c3cc(N)cc(C(F)(F)F)c3)c2cc1OC1CCOC1 | > 10 | > 10 | > 10 | > 10 | 89.7 | 102 | 92.5 | 96 | 91.1 | 100 | 98 | 88.9 | 102 | 111 | 96.8 | 89.2 | 71.4 | 77.8 | 85.8 | 66 | IC50 [5]: 0.11 µM; viability, T/C [10]: 103%; viability, T/C [11]: 86.5%; viability, T/C [16]: 87.3%; viability, T/C [17]: 75.8%; viability, T/C [22]: 96.8%; viability, T/C [23]: 86.3%; viability, T/C [28]: 68.3%; viability, T/C [29]: 58%; viability, T/C [30]: 98.9%; viability, T/C [31]: 45.8%; viability, T/C [32]: 40.9%; viability, T/C [33]: 35.5%; viability, T/C [34]: 26%; viability, T/C [35]: 21.6%
CC(C)NCC(C(=O)N1CCN(c2ncnc3c2C(C)CC3O)CC1)c1ccc(Cl)cc1 (stereo unspecified) + C=CC(=O)N1CCN(c2nc(OCC3CCCN3C)nc3c2CCN(c2cccc4cccc(C)c24)C3)CC1CC#N | > 10 | > 10 | > 10 | < 0.0316 | 80.6 | 81.7 | 67.6 | 64.6 | 66.8 | 81.4 | 72.8 | 65.5 | 60.4 | 65.6 | 65 | 61.9 | 37.6 | 46.9 | 44 | 22 | IC50 (curve of first compound, second compound 0.0316 µM): > 10 µM; viability, T/C (second compound 0.0316 µM, first compound 0.0316 µM): 97.3%; viability, T/C (second compound 0.0316 µM, first compound 0.1 µM): 93.5%; viability, T/C (second compound 0.0316 µM, first compound 0.316 µM): 84.8%; viability, T/C (second compound 0.0316 µM, first compound 1 µM): 63.7%; viability, T/C (second compound 0.0316 µM, first compound 3.16 µM): 66.3%; viability, T/C (second compound 0.0316 µM, first compound 10 µM): 64.9%; viability, T/C [10]: 85.4%; viability, T/C [11]: 76.9%; viability, T/C [16]: 63.2%; viability, T/C [17]: 58.7%; viability, T/C [22]: 64.8%; viability, T/C [23]: 58.4%; viability, T/C [28]: 32%; viability, T/C [29]: 27.3%
CCN1CCN(Cc2ccc(Nc3ncc(F)c(-c4cc(F)c5nc(C)n(C(C)C)c5c4)n3)nc2)CC1 + CNCc1ccccc1-c1csc(C(C)Nc2nc(C)nc3cc(OC)c(OC)cc23)c1 | > 1 | > 1 | 0.54 | < 0.00316 | 87.1 | 92.1 | 126 | 115 | 95.3 | 107 | 104 | 116 | 76.3 | 76.2 | 80.7 | 16 | 0.51 | 0.41 | 1.45 | 0.72 | IC50 [5]: < 0.00316 µM; viability, T/C (second compound 0.1 µM, first compound 0.00316 µM): 129%; viability, T/C [36]: 106%; viability, T/C (second compound 0.316 µM, first compound 0.00316 µM): 90.2%; viability, T/C [37]: 111%; viability, T/C (second compound 1 µM, first compound 0.00316 µM): 92.2%; viability, T/C [38]: 96.9%; viability, T/C (second compound 3.16 µM, first compound 0.00316 µM): 0.71%; viability, T/C [39]: 0.53%; viability, T/C (second compound 10 µM, first compound 0.00316 µM): 0.81%; viability, T/C [40]: 1.33%; viability, T/C [30]: 0.33%; viability, T/C [31]: 0.21%; viability, T/C [32]: 0.22%; viability, T/C [33]: 0.3%
CC(=O)OC12COC1CC(O)C1(C)C(=O)C(O)C3=C(C)C(OC(=O)C(O)C(NC(=O)OC(C)(C)C)c4ccccc4)CC(O)(C(OC(=O)c4ccccc4)C21)C3(C)C (stereo unspecified) + C=CC(=O)N1CCN(c2nc(=O)n(-c3c(C)ccnc3C(C)C)c3nc(-c4c(O)cccc4F)c(F)cc23)C(C)C1 | > 3.16 | > 3.16 | > 3.16 | > 3.16 | 96.5 | 80.4 | 77.4 | 86.3 | 109 | 79.4 | 70.5 | 90.1 | 85.3 | 71.6 | 75 | 88 | 84.9 | 77.8 | 92.8 | 79.5 | IC50 [5]: > 3.16 µM; viability, T/C [36]: 87%; viability, T/C [10]: 97.8%; viability, T/C [37]: 100%; viability, T/C [16]: 89.5%; viability, T/C [38]: 90.7%; viability, T/C [22]: 99.2%; viability, T/C [39]: 95.5%; viability, T/C [28]: 90.2%; viability, T/C [40]: 79.2%; viability, T/C [30]: 72.2%; viability, T/C [31]: 97.6%; viability, T/C [32]: 64.2%; viability, T/C [33]: 103%; viability, T/C [34]: 129%
